{
  "source": "patent US20170095512A1",
  "about": "“METHODS OF INDUCING MYELINATION AND MATURATION OF OLIGODENDROCYTES” (KADIMASTEM LTD., priority 2014, published 2017)",
  "key": {"[1]": {"system": "hPSC derived oligodendrocytes co-cultured with rodent dorsal root ganglia neurons (MBP+ cells)", "test": "Co-culture myelination assay (human oligodendrocytes with DRG neurons), MBP staining", "format": "cell-based", "method": "ArrayScan VTI HCS reader system (Cellomis, Thermo-scientific) was used for scanning at least 20 fields for each tested well under 10× objective in both assays (differentiation and myelination). Cellomics Neural profiling bio-application was used for processing and analyzing the images. For differentiation assay, the following parameters were tested: number and percentage of O4+ cells, number of processes, processes length and number of branching points. For myelination assay, the same morphological parameters were tested and in addition: areas of myelinated axons in pixels (MBP&NF overlap area) and Number of myelinated regions (MBP&NF overlap count) were also analyzed. Modifications in the Neuro-profiling bio-application were conducted for this specific purpose. T-test analysis was used to compare between treatments. The 4-parameter Hill-Slope curve fittings were generated by GraphPad Prism software using least squares fitting method and EC50 values were calculated.\nDRG dissociated cells from mouse embryonic day 13 (E13) or rat embryonic day (E15) were seeded on matrigel and PDL-coated 96 well plates (20,000 cells/well). In order to allow long culture and co-culture of neuron axons in 96 well plates without de-attachment, a method where the periphery of each well was scratched leaving sticky edges (and smooth surface) was developed. This scratch methodology enables long lasting culture of neuron axons on 96 well format. Once DRG neurons were seeded they were fed with Neurobasal medium (Gibco) supplemented with B27 (Gibco) and 50 ng/ml NGF (Alomone labs) (NB medium) for 2-3 weeks prior hES-OPC addition. […]\nFor testing maturation and myelination capacity of the hPSC derived oligodendrocytes, a co-culture system between rodent dorsal root ganglia (DRGs) and hPSCs derived oligodendrocytes was used. The number of MBP+ cells (MBP, a marker of oligodendrocytes' myelin) and Myelin formation (measured by co-localization area between MBP and neurofilament positive neuronal axons) was quantified."}, "[2]": {"system": "human OPC derived from ES cells (O4+ cells)", "test": "hOPC differentiation assay, O4+ cells (immunostaining, high content screening)", "format": "cell-based", "method": "In order to initiate differentiation 20,000 GPCs were seeded in each well of Matrigel coated plates of 96 wells, or on PolyD-Lysine/laminin (PDL/lam)-coated 96 well plates. Cells were grown in GM media for two to three days. Then GM was replaced by differentiation medium without growth factors, (DMEM/F12, 1% B27, 0.5% N2, Vitamin C (Sigma, 50 ug/ml). Differentiation medium was supplemented with the following tested compounds: […] All media were replaced every other day. Oligodendrocytes were characterized by the presence of the antigen detected by the monoclonal antibody O4 (IgM (R&D). Living cells reacted with O4 antibody diluted 1/200 in medium without growth factors (50 ul/well) and left for 40 minutes in the incubator at 37° C., washed once with GM, fixed with PFA 4% (170 ul per well) for 20 minutes at room temperature, washed 3 times with PBS. Dapi diluted to 0.5 ug/ml was introduced in the second wash for 10 min Afterwards the preparation was blocked with 5% normal goat serum in PBS-- for 20 min, washed and reacted with goat anti mouse IgM Ab-FITC conjugated (Millipore cat A[…]) diluted 1/500, for 45 minutes at room temperature, and washed three times with PBS--. ArrayScan VTI HCS reader system (Cellomis, Thermo-scientific) was used for scanning at least 20 fields for each tested well under 10× objective in both assays (differentiation and myelination). Cellomics Neural profiling bio-application was used for processing and analyzing the images. For differentiation assay, the following parameters were tested: number and percentage of O4+ cells, number of processes, processes length and number of branching points. For myelination assay, the same morphological parameters were tested and in addition: areas of myelinated axons in pixels (MBP&NF overlap area) and Number of myelinated regions (MBP&NF overlap count) were also analyzed. Modifications in the Neuro-profiling bio-application were conducted for this specific purpose. T-test analysis was used to compare between treatments. The 4-parameter Hill-Slope curve fittings were generated by GraphPad Prism software using least squares fitting method and EC50 values were calculated."}},
  "note": "“Also recorded” adds a separate entry of the source.",
  "data": [
    {"smiles": "c1ccc2c(-c3cnn4cc(-c5ccc(N6CCNCC6)cc5)cnc34)ccnc2c1", "note": "[LDN-193189]", "values": [
      {"measurement": "MBP+ cells number / differentiation into MBP+ cells (summary statement)", "setting": "[1]", "result": "increased also the number of MBP+ cells"},
      {"measurement": "number of MBP+ cells (mature oligodendrocytes)", "setting": "[1]; 14 days co-culture, 125 nM LDN-193189 added to MYL media with 50 ng/ml Noggin, vs Noggin alone", "result": "increased the number of MBP+ cells; also recorded: significant increase"},
      {"measurement": "total cell count", "setting": "[1]; 14 days co-culture, Noggin+LDN-193189 vs Noggin alone", "result": "no difference was observed"},
      {"measurement": "O4+ cells number / conversion of Olig2+ cells into O4+ cells (summary statement)", "setting": "[2]", "result": "increased the number of O4+ and Olig2+ cells; also recorded: stimulates"},
      {"measurement": "number of O4+ cells", "setting": "[2]; day 21, Noggin 50 ng/ml + PDGF 20 ng/ml, Dorsomorphin 2 μM, LDN-193189 125 nM", "result": "increase in the number of O4+ cells"},
      {"measurement": "number of processes per cell", "setting": "[2]; dose dependent manner", "result": "increased"},
      {"measurement": "total length of processes", "setting": "[2]; dose dependent manner", "result": "increased"}
    ]}
  ]
}
